Results as given in patent publication US20020182587A1, “Methods and compositions for the treatment and prevention of smooth muscle cell proliferation” (priority 2001, published 2002).

How the values were obtained:
[1] = test system: neointima formation following balloon catheter-induced injury of the common carotid arteries; assay: Neointima formation after balloon catheter-induced injury of the common carotid arteries; format: in vivo, male Wistar rats
Description: Two of test compounds discovered using the methods of the present invention, particularly shown in Example VI, compositions RUS 3052 and RUS 3108, were evaluated for efficacy in the reduction of neointima formation following balloon catheter-induced injury of the common carotid arteries of male Wistar rats. Thirty-two rats were divided into groups of eight animals per group: two test compound groups and two control groups. The two control groups were the positive control, 5 mg/kg probucol, and the negative control, the vehicle for the test compositions and the positive control probucol. […] The vehicle solution was 10% DMSO, 10% cremophor, 20% propylene glycol in water for injection. Test compositions RUS 3052 and RUS 3108 were initially administered at 5 mg/kg up to and including the day of surgery. Starting the day after surgery, until the end of the study, the dosage of all compositions was lowered to 1 mg/kg. The test compositions were prepared by combining 5 mg of the test compound or control with 100 μl DMSO, 100 μl cremophor EL, and 200 μl propylene glycol with intermittent mixing using a cyclomixer. Water for injection was added in 100 μl aliquots to give a final volume of 1 ml.
The test compositions and controls were administered daily by intraperitoneal injection starting 72 hours prior to the surgical procedure and continued until necropsy, 14 days after the procedure. One animal from each of the four groups underwent the surgical procedure each day using a #2F Fogarty embolectomy catheter. An embolectomy catheter was introduced into the right external carotid artery and retrogradely passed to the aortic arch through the common carotid artery. The balloon was inflated with sterile saline and then pulled to the common carotid-external carotid bifurcation. […]
Fourteen days post-surgery, the animals of Example VII were euthanized and the damaged right carotid arteries were collected, sectioned and stained with modified elastin-trichrome, and then analyzed for neointima formation that was quantified by histomorphometric analysis. […]

human aortic SMC = assay: (3H)thymidine DNA synthesis / proliferation of sub-confluent SMC; format: cell-based; details: purified perlecan added to 10% serum-containing medium, 24 h
Description: Smooth muscle cells reach quiescence during serum starvation resulting in a blockade of DNA synthesis. […] The cells used in this Example and the other examples herein were human aortic SMC, grown in basal medium supplemented with growth factors, bFGF and epidermal growth factor (EGF) (Clonetics, San Diego, Calif.).
The addition of perlecan to serum-containing medium inhibited SMC growth by 70% (FIG. 2). Sub-confluent SMC (40-50% confluence) were incubated in serum-free medium or 10% serum-containing medium with or without purified perlecan for 24 h. DNA synthesis was then determined by incubating cells for another 5 h in medium containing (^3H)thymidine. TCA precipitable (DNA) thymidine counts were determined and expressed as percentage of DNA synthesis in cells grown in 10%FBS.
Perlecan, induced in serum-free conditions, was required for the blockade of DNA synthesis observed in serum-free conditions. The anti-perlecan antibody of Example I was used to block perlecan. Sub-confluent levels of SMC (40-50% confluence) were incubated in serum-free medium containing 0, 5, 10 and 20 μg of mouse IgG or anti-perlecan IgG for 24 hours. DNA synthesis was then determined by incubating cells for another 5 hours in medium containing (^3H)thymidine. TCA precipitable (DNA) (^3H)thymidine counts were determined and expressed as percentage of DNA synthesis in cells grown in 10% FBS. […]

Row | Compound | IA/MA Average ± STD (n), Based on Section Averages ([1]; rat, i.p. daily, 5 mg/kg up to surgery then 1 mg/kg, 14 days post-surgery, all sections within group) | IA/MA Average ± STD (n), Based on Animal Averages ([1]; rat, i.p. daily, 5 mg/kg up to surgery then 1 mg/kg, 14 days post-surgery, sections with IA/MA > 0.0915) | reduction of neointima formation in comparison to the negative control group ([1]; significance set at p<0.20) | inhibition of SMC growth (DNA synthesis, percentage of cells grown in 10% FBS) (human aortic SMC) [%]
1 | CC(C)(Sc1cc(C(C)(C)C)c(O)c(C(C)(C)C)c1)Sc1cc(C(C)(C)C)c(O)c(C(C)(C)C)c1 [Probucol, probucol] | 0.71 ± 0.30 (9) | 0.65 ± 0.25 (3) | effective in significantly reducing neointima formation | 
2 | perlecan |  |  |  | 70
